Molecular target: T1, KDM5A (Homo sapiens, UniProt P29375)
T1 construct: Full length recombinant Flag tagged KDM5A protein was purified from Sf9 insect cells; Flag; made in house; host or cells: Sf9 insect cells
Experiment: KDM5A Demethylase Assay (TR-FRET Assay-C)
Type: biochemical
Settings: full length recombinant Flag tagged KDM5A, 2 nM, HEPES pH 7.0, 1 μM α-ketoglutarate, read-out: C KDM5A HTRF (IC50)
Method: Full length recombinant Flag tagged KDM5A protein was purified from Sf9 insect cells. The demethylation reaction buffer contained 50 mM HEPES pH 7.0, 0.01% Triton X-100, 0.5 mM ascorbate, 2 mM DTT, 1 μM α-ketoglutarate, and 100 μM Fe2(NH4)2(SO4)2. In a 10 μL demethylation reaction system, 2 nM recombinant KDM5A was added to compounds in the above buffer (Vt 5 uL) in a 384 well Proxi Plate (Perkin Elmer Corp.) and then 0.1 μM biotinylated H3K9me1 peptide (1-21 aa, New England Peptide, Vt 5 uL) was added to initiate the reaction (Vt 10 uL). (All protein/reagent concentrations are final concentrations.) Reactions were incubated for 30 minutes at room temperature, and then quenched by addition of 5 uL stop buffer (3 mM EDTA, 50 mM TrisCl pH 7.5, 0.01% Triton X-100, 0.01 mg/mL BSA) followed by addition of 5 uL of detection reagents (buffer as above without EDTA but with addition of 200 nM SA-XL665 (CisBio) and 2 nM Eu(W1024)-anti-H3K4Me1-2 antibody (PerkinElmer)). After a 30 minute incubation assays were read on a Perkin-Elmer Envision equipped with appropriate filters. IC50s were calculated using standard dose-response equations and relative to a Max (no inhibition) and Min (no enzyme or quenched enzyme) controls.

T1 sequence (P29375 whole entry): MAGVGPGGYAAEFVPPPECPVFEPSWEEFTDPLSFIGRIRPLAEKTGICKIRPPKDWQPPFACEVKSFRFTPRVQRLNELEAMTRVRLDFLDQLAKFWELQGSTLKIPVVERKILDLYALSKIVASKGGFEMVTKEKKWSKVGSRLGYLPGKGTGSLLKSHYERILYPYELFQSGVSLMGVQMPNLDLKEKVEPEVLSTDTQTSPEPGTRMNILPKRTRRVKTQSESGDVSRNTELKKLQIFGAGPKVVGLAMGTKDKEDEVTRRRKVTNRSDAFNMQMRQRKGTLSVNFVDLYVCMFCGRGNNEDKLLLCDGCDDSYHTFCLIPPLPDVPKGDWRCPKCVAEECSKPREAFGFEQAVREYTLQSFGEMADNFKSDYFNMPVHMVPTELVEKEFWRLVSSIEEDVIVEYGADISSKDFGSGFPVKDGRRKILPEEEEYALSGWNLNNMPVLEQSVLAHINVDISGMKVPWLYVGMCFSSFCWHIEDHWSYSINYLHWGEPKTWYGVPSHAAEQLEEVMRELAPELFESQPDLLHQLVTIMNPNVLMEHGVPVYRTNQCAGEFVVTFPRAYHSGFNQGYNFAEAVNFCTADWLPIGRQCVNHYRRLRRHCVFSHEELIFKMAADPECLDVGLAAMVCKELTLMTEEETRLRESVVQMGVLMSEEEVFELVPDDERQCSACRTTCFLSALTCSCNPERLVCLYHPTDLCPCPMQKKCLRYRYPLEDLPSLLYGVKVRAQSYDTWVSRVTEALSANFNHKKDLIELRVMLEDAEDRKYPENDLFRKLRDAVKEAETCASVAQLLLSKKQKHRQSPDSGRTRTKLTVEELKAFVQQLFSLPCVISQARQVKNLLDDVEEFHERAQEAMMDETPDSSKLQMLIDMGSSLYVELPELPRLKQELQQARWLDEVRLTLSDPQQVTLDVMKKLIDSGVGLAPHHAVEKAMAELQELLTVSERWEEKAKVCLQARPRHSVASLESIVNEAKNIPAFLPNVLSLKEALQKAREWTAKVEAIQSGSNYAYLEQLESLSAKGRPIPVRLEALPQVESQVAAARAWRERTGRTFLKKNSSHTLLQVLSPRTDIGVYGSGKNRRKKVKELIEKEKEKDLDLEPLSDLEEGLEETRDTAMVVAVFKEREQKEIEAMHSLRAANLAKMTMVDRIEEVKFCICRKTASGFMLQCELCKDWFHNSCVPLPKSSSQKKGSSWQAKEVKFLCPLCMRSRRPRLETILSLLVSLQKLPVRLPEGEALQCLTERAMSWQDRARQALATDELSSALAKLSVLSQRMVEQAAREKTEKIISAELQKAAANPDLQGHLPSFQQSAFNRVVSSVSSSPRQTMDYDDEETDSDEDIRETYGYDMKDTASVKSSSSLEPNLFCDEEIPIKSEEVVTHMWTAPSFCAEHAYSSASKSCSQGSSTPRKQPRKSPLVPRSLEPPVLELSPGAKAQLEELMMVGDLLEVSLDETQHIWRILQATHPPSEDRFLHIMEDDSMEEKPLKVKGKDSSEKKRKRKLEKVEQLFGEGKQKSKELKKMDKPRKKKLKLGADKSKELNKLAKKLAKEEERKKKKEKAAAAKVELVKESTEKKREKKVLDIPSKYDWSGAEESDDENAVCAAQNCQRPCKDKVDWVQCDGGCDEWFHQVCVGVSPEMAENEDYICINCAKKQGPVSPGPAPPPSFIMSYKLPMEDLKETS

Compound	IC50 [nM]
Cc1ccc(-n2cc(-c3cnn4c(=O)c(C5CC5)c(C)[nH]c34)cn2)nc1 [Example 27, 6-cyclopropyl-5-methyl-3-(1-(5-methylpyridin-2-yl)-1H-pyrazol-4-yl)pyrazolo[1,5-a]pyrimidin-7(4H)-one]	33.2
O=c1c2c([nH]c3c(-c4cnn(-c5ccccn5)c4)cnn13)CCC2 [Example 42, 3-(1-(pyridin-2-yl)-1H-pyrazol-4-yl)-6,7-dihydro-4H-cyclopenta[d]pyrazolo[1,5-a]pyrimidin-8(5H)-one]	32.2
Cc1[nH]c2c(-n3cnc(-c4ccccn4)c3)cnn2c(=O)c1C(C)C [Example 46, 6-isopropyl-5-methyl-3-(4-(pyridin-2-yl)-1H-imidazol-1-yl)pyrazolo[1,5-a]pyrimidin-7(4H)-one]	23.4

Source: patent publication US9505767B2, “Pyrazolo[1,5-A]pyrimidin-7(4H)-onehistone demethylase inhibitors” (Genentech, Inc., priority 2013, dated 2016)
